The test system of one data set is Reserpine ptosis. Description: inhibition of reserpine ptosis (oral). Type of data set: in vivo. To be noted: Mus musculus, 1.5 h, Swiss mice, reserpine 5 mg/kg intraperitoneal, compounds orally at the same time, ptosis marked 1 h 30 min later. The procedure:
The mood-modifying activity of the compounds is evaluated by standardized tests such as inhibition of known reserpine ptosis. Reserpine ptosis may be induced by methods such as those described in the literature. For example, Rubin, et al, [J. Pharmacol, Exp. Ther. 120: 125(1957)] induced ptosis in Swiss mice by intraperitoneal injection of 5 mg/kg of reserpine. This ptosis was marked 1 h 30 min later. Compounds to be tested for reserpine inhibition were administered orally at the same time as the reserpine was injected.

Data set [1] is described as follows: lethal dose (LD50) determined orally in Swiss mice. To be noted: mouse, in vivo, oral.

Counter-ions that a name gives are not always drawn.

As a reminder, the ED50 is the midpoint of the dose-response relation. The term LD50 denotes the dose at which mortality reaches 50%. Low values mean greater toxicity, high ones lower toxicity. `NC1=Nc2ccccc2C(c2ccc(Cl)cc2)CN1` (centres unmarked) [Example 4, 2-Amino-5-(4-chlorophenyl)-4,5-3H-dihydro-1,3-benzodiazepine hydrochloride] yielded an ED50 with Reserpine ptosis of 11 mg/kg. This molecule returned an LD50 in data set [1] of 1200 mg/kg.

As to `CCOC(=O)NC1=Nc2ccccc2C(c2ccccc2)CN1` (centres unmarked) [Example 48, 2-amino-(5-Phenyl-4,5-3H-dihydro-1,3-benzodiazepin)yl ethyl carbamate], the 50% effect level with Reserpine ptosis (ED50) was put at a dose of 13 mg/kg. Besides, the LD50 in data set [1] is more than 3200 mg/kg.

Consider `Cc1ccc(C2CNC(N)=Nc3ccc(C)cc32)cc1` (centres unmarked) [Example 8, 2-Amino-7-methyl-5-(4-methylphenyl)-4,5-3H-dihydro-1,3-benzodiazepine hydrochloride], for which the ED50 in the data set on Reserpine ptosis was found to be 3 mg/kg. In addition, the LD50 in data set [1] was found to be 2400 mg/kg.

Consider `CN(C)CCC=C1c2ccccc2CCc2ccccc21` [AMITRIPTYLINE, 5-(3-dimethylaminopropylidene)dibenzo[a,d]-1,4-cycloheptadiene hydrochloride, reference compound], for which the ED50 in the data set on Reserpine ptosis is 10 mg/kg.

The molecule `NC1=Nc2ccccc2C(c2ccccc2)CN1` (centres unmarked) [Example 1, 2-Amino-5-phenyl-4,5-3H-dihydro-1,3-benzodiazepine hydrochloride] returned an ED50 in the data set with Reserpine ptosis of 18 mg/kg. Besides, in data set [1], the median lethal dose (LD50) was 600 mg/kg.

In the case of `Cc1ccc(C2CNC(N)=Nc3ccccc32)cc1` (centres unmarked) [Example 3, 2-Amino-5-(4-methylphenyl)-4,5-3H-hydro-1,3-benzodiazepine hydrochloride], the 50% effect level with Reserpine ptosis (ED50) was put at a dose of 10 mg/kg. In data set [1], this molecule registered an LD50 of 330 mg/kg.

These data come from patent US4554273A, “2-Amino-5-phenyl-1,3-benzodiazepines” (Lipha Lyonnaise Industrielle Pharmaceutique, priority 1983, dated 1985).
